From the supplement of paper PMC6045584
± gives the standard deviation of the averaged measurements.

Key:
PACLITAXEL = compound: CC(=O)O[C@H]1C(=O)[C@@]2(C)[C@H]([C@H](OC(=O)c3ccccc3)[C@]3(O)C[C@H](OC(=O)[C@H](O)[C@@H](NC(=O)c4ccccc4)c4ccccc4)C(C)=C1C3(C)C)[C@]1(OC(C)=O)CO[C@@H]1C[C@@H]2O [PACLITAXEL]; test: surviving fraction relative to DMSO-only wells; higher = less growth inhibition; conditions: exposure time: 5 days
Summary of the method: (§1)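 At 250–500 cells per well in 384-well plates, log-phase tumour cell lines were seeded and, 24 hours on, exposed continuously for five days to inhibitors at 0.5, 1, 5, 10, 50, 100, 500 and 1000 nM. Viability readout was CellTiter-Glo luminescence, reported as surviving fraction normalised to the median of DMSO-only wells.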

[1] = compound: CC(=O)c1c(C)c2cnc(Nc3ccc(N4CCNCC4)cn3)nc2n(C2CCCC2)c1=O; test: as above; conditions: exposure time: 5 days
Summary of the method: as §1

| Test System | surviving fraction (PACLITAXEL; 0.5 nM) | surviving fraction (PACLITAXEL; 1 nM) | surviving fraction (PACLITAXEL; 5 nM) | surviving fraction (PACLITAXEL; 10 nM) | surviving fraction (PACLITAXEL; 50 nM) | surviving fraction (PACLITAXEL; 100 nM) | surviving fraction (PACLITAXEL; 500 nM) | surviving fraction (PACLITAXEL; 1000 nM) | surviving fraction ([1]; 0.5 nM) | surviving fraction ([1]; 1 nM) | surviving fraction ([1]; 5 nM) | surviving fraction ([1]; 10 nM) | surviving fraction ([1]; 50 nM) | surviving fraction ([1]; 100 nM) | surviving fraction ([1]; 500 nM) | surviving fraction ([1]; 1000 nM) |
| --- | --- | --- | --- | --- | --- | --- | --- | --- | --- | --- | --- | --- | --- | --- | --- | --- |
| CADOES1 SOFT TISSUE | 1 ± 0.062 | 0.994 ± 0.13 | 0.955 ± 0.039 | 0.846 ± 0.078 | 0.38 ± 0.11 | 0.188 ± 0.058 | 0.052 ± 0.0017 | 0.0457 ± 0.0015 | 0.962 ± 0.048 | 0.897 ± 0.11 | 0.821 ± 0.078 | 0.883 ± 0.13 | 0.83 ± 0.053 | 0.921 ± 0.039 | 0.726 ± 0.011 | 0.704 ± 0.048 |
| ASKA SYNOVIAL | 0.851 ± 0.028 | 0.629 ± 0.052 | 0.203 ± 0.011 | 0.194 ± 0.0031 | 0.262 ± 0.0055 | 0.23 ± 0.011 | 0.199 ± 0.016 | 0.229 ± 0.01 | 1.04 ± 0.06 | 0.971 ± 0.057 | 1.06 ± 0.094 | 1.02 ± 0.071 | 1.07 ± 0.1 | 1.08 ± 0.074 | 0.82 ± 0.034 | 0.73 ± 0.023 |
| C33A CERVIX | 0.855 ± 0.042 | 0.842 ± 0.054 | 0.328 ± 0.015 | 0.179 ± 0.031 | 0.11 ± 0.0091 | 0.173 ± 0.047 | 0.089 ± 0.021 | 0.0977 ± 0.025 | 0.978 ± 0.065 | 1.05 ± 0.066 | 1.14 ± 0.13 | 1.08 ± 0.067 | 1.15 ± 0.13 | 1.2 ± 0.11 | 1.01 ± 0.082 | 1.16 ± 0.12 |
| MDAMB436 BREAST | 0.794 ± 0.033 | 0.684 ± 0.015 | 0.314 ± 0.022 | 0.21 ± 0.0036 | 0.192 ± 0.03 | 0.173 ± 0.016 | 0.171 ± 0.014 | 0.198 ± 0.018 | 0.912 ± 0.09 | 0.888 ± 0.047 | 1.01 ± 0.054 | 0.833 ± 0.032 | 0.92 ± 0.042 | 0.915 ± 0.07 | 0.915 ± 0.082 | 0.915 ± 0.031 |
| H23 LUNG | 0.951 ± 0.03 | 0.866 ± 0.022 | 0.18 ± 0.0027 | 0.14 ± 0.0095 | 0.113 ± 0.0091 | 0.108 ± 0.0042 | 0.0867 ± 0.0067 | 0.089 ± 0.003 | 1.01 ± 0.035 | 1 ± 0.029 | 1.04 ± 0.038 | 0.928 ± 0.065 | 1.132 ± 0.01 | 1.12 ± 0.068 | 1.15 ± 0.074 | 1.13 ± 0.033 |
| MHM BONE | 0.9897 ± 0.0049 | 0.992 ± 0.053 | 0.535 ± 0.021 | 0.339 ± 0.022 | 0.243 ± 0.0095 | 0.216 ± 0.011 | 0.187 ± 0.0059 | 0.177 ± 0.01 | 1.01 ± 0.029 | 0.98 ± 0.018 | 1.037 ± 0.0076 | 1.03 ± 0.011 | 1.05 ± 0.019 | 1.03 ± 0.016 | 0.966 ± 0.015 | 0.985 ± 0.044 |
| SCC36 HEADNECK | 0.966 ± 0.035 | 0.8 ± 0.0036 | 0.246 ± 0.041 | 0.154 ± 0.042 | 0.103 ± 0.007 | 0.109 ± 0.026 | 0.108 ± 0.006 | 0.114 ± 0.017 | 1.02 ± 0.1 | 1.01 ± 0.015 | 1.17 ± 0.064 | 1.11 ± 0.056 | 1.1 ± 0.084 | 1.07 ± 0.025 | 0.923 ± 0.094 | 0.897 ± 0.025 |
| CME SYNOVIAL | 1.07 ± 0.11 | 0.933 ± 0.11 | 0.524 ± 0.12 | 0.279 ± 0.073 | 0.258 ± 0.02 | 0.219 ± 0.028 | 0.2 ± 0.041 | 0.262 ± 0.02 | 1.23 ± 0.18 | 1.27 ± 0.14 | 1.3 ± 0.18 | 1.18 ± 0.11 | 1.37 ± 0.062 | 1.23 ± 0.099 | 1.22 ± 0.066 | 1.09 ± 0.14 |
| MFM223 BREAST | 0.948 ± 0.056 | 0.736 ± 0.066 | 0.295 ± 0.026 | 0.129 ± 0.012 | 0.0873 ± 0.012 | 0.0663 ± 0.003 | 0.062 ± 0.0051 | 0.0632 ± 0.0075 | 1.17 ± 0.042 | 1.13 ± 0.078 | 1.16 ± 0.11 | 1.19 ± 0.062 | 1.15 ± 0.14 | 1.15 ± 0.1 | 1.09 ± 0.031 | 1.03 ± 0.064 |
| MDAMB361 BREAST | 0.974 ± 0.073 | 0.952 ± 0.028 | 0.887 ± 0.04 | 0.707 ± 0.021 | 0.585 ± 0.041 | 0.593 ± 0.056 | 0.516 ± 0.046 | 0.546 ± 0.027 | 0.924 ± 0.046 | 0.861 ± 0.13 | 0.882 ± 0.09 | 0.825 ± 0.053 | 0.881 ± 0.083 | 0.86 ± 0.032 | 0.861 ± 0.23 | 0.866 ± 0.021 |
| HCT15 LARGE INTESTINE | 1.01 ± 0.012 | 1.07 ± 0.024 | 0.95 ± 0.077 | 0.861 ± 0.074 | 0.255 ± 0.064 | 0.0833 ± 0.0076 | 0.04 ± 0.0036 | 0.0453 ± 0.0032 | 1.09 ± 0.044 | 1.05 ± 0.028 | 1.06 ± 0.025 | 1.03 ± 0.052 | 1.14 ± 0.055 | 1.1 ± 0.038 | 1.12 ± 0.058 | 1.11 ± 0.035 |
| SIHA CERVIX | 0.988 ± 0.031 | 0.948 ± 0.04 | 0.238 ± 0.029 | 0.136 ± 0.014 | 0.0897 ± 0.0031 | 0.0817 ± 0.004 | 0.101 ± 0.0087 | 0.0943 ± 0.014 | 1.09 ± 0.085 | 1.12 ± 0.087 | 1.17 ± 0.11 | 1.11 ± 0.041 | 1.1 ± 0.039 | 1.13 ± 0.11 | 1.12 ± 0.15 | 1.02 ± 0.067 |
| CAL120 BREAST | 0.744 ± 0.044 | 0.602 ± 0.022 | 0.158 ± 0.014 | 0.0937 ± 0.005 | 0.105 ± 0.003 | 0.0962 ± 0.0023 | 0.0798 ± 0.0061 | 0.0923 ± 0.007 | 0.953 ± 0.017 | 0.965 ± 0.026 | 0.9478 ± 0.0082 | 0.9508 ± 0.0056 | 1.01 ± 0.014 | 0.974 ± 0.0098 | 0.9508 ± 0.0081 | 0.935 ± 0.013 |
| MDAMB453 BREAST | 0.988 ± 0.082 | 0.998 ± 0.096 | 0.382 ± 0.051 | 0.303 ± 0.02 | 0.164 ± 0.014 | 0.145 ± 0.016 | 0.131 ± 0.015 | 0.134 ± 0.015 | 1.05 ± 0.018 | 1.04 ± 0.043 | 1.07 ± 0.026 | 1.11 ± 0.044 | 1.15 ± 0.1 | 1.11 ± 0.061 | 1 ± 0.026 | 1.01 ± 0.071 |
| T47D BREAST | 0.718 ± 0.018 | 0.579 ± 0.01 | 0.307 ± 0.0054 | 0.265 ± 0.027 | 0.226 ± 0.011 | 0.222 ± 0.022 | 0.214 ± 0.0067 | 0.226 ± 0.023 | 1.05 ± 0.019 | 1.039 ± 0.0056 | 1.09 ± 0.022 | 1.06 ± 0.022 | 1.17 ± 0.014 | 1.08 ± 0.045 | 1.16 ± 0.042 | 1.11 ± 0.028 |
| KPD BONE | 0.909 ± 0.093 | 0.889 ± 0.062 | 0.387 ± 0.029 | 0.365 ± 0.044 | 0.338 ± 0.015 | 0.315 ± 0.025 | 0.327 ± 0.011 | 0.313 ± 0.026 | 0.924 ± 0.081 | 0.939 ± 0.029 | 1.04 ± 0.05 | 0.961 ± 0.027 | 0.99 ± 0.069 | 0.993 ± 0.072 | 0.775 ± 0.026 | 0.679 ± 0.041 |
| HSSYII SYNOVIAL | 0.836 ± 0.0087 | 0.558 ± 0.021 | 0.0827 ± 0.011 | 0.0622 ± 0.0043 | 0.0613 ± 0.0025 | 0.0585 ± 0.0041 | 0.049 ± 0.0033 | 0.0538 ± 0.0021 | 0.986 ± 0.015 | 0.935 ± 0.028 | 0.975 ± 0.035 | 1 ± 0.019 | 0.892 ± 0.045 | 0.914 ± 0.07 | 0.811 ± 0.013 | 0.737 ± 0.045 |
| BT549 BREAST | 0.963 ± 0.13 | 0.219 ± 0.04 | 0.0553 ± 0.0085 | 0.0387 ± 0.0025 | 0.049 ± 0.0079 | 0.041 ± 0.0027 | 0.038 ± 0.0053 | 0.0463 ± 0.014 | 1.1 ± 0.12 | 1.124 ± 0.0096 | 1.22 ± 0.14 | 1.03 ± 0.098 | 1.13 ± 0.17 | 0.979 ± 0.16 | 1.12 ± 0.12 | 1.05 ± 0.036 |
| SNU475 LIVER | 0.8 ± 0.034 | 0.649 ± 0.026 | 0.282 ± 0.018 | 0.2 ± 0.023 | 0.142 ± 0.014 | 0.138 ± 0.0065 | 0.132 ± 0.029 | 0.137 ± 0.008 | 1.02 ± 0.037 | 1.01 ± 0.041 | 1.06 ± 0.026 | 1.01 ± 0.073 | 1.07 ± 0.02 | 1.03 ± 0.088 | 1.04 ± 0.021 | 0.917 ± 0.04 |
